The source of these data is patent US20170296505A1, “LONG-CHAIN CARBOXYCHROMANOLS AND ANALOGS FOR USE AS ANTI-INFLAMMATORY AGENTS” (Purdue Research Foundation, priority 2008, published 2017).

Where two headings read alike, the source gives them in different places.

The subject of data set [1] is IL-1beta-stimulated PGE2 formation in A549 cells. As to the kind of experiment: IL-1beta-stimulated PGE2 formation with or without sesamin (Table 4). It is filed as cell-based, human. Particulars: IL-1beta 2 ng/ml, 8 h; 13′-COOH 2.5 uM, sesamin 1 uM. As to the method:
Briefly, A549 cells were stimulated with IL-1beta (2 ng/ml) in the presence of DMSO (ctrl, 0.1%), control with sesamin (1 uM), 13′-COOH (structure 1) at 2.5 uM, 13′-COOH with sesamin (1 uM). Basal control was cells incubated with medium without IL-1beta. Eight hours later, media were collected and PGE2 was measured by ELISA.

Data set [2] concerns PGE2 in IL-1β treated A549 cells. Description: PGE2 generation during chronic IL-1β treatment. It is filed as cell-based, human. Particulars: for IC50: read-out: concentration to cause 50% inhibition of PGE2, in the presence of exogenous AA (5 μM, 5 min) after co-incubation with IL-1β. Here is the method:
A549 cells were pre-incubated with different concentrations of tocopherols in the presence or absence of 1 μM sesamin for 15 h, and then treated with IL-1β (2 ng/mL) for 24 h. PGE2 in the cell-culture media was measured by ELISA assays. Results are the averages of three independent experiments and expressed as Mean±SEM.
A549 cells were pre-incubated with different concentrations of tocotrienols in the presence or absence of 1 μM sesamin for 15 h, and then treated with IL-1β (2 ng/mL) for 24 h. PGE2 in the cell-culture media was measured by ELISA assays. Results are the averages of three independent experiments and expressed as Mean±SEM.
PGE2 generation during chronic IL-1β treatment—2.5−3×10^5 A549 cells per well were seeded in RPMI-1640 with 10% of FBS and allowed to attach overnight in a 24-well plate. Vitamin E stock solutions were initially made in DMSO and then diluted in 10 mg/mL of bovine serum albumin. Confluent cells were incubated in DMEM containing 1% FBS with DMSO (control) or vitamin E forms for 14-16 h and then 2 ng/ml of IL-1β was introduced for 24 hours. The medium was then collected and PGE2 accumulation was measured using ELISA assay from Cayman Chemicals (Ann Arbor, Mich.).
Statistical analysis—The unpaired student's t-test was used in the statistical analysis. All results are expressed as mean±SD. Activation of human lung epithelial A549 cells by IL-1β leads to a strong up-regulation of COX-2 protein expression and almost 100-fold increase of PGE2 generation. This cellular system has been employed to evaluate inhibitory potency of anti-inflammatory drugs, including COX inhibitors and was previously used by us to study the effect of α-T, γ-T and γ-CEHC on PGE2 formation (13, 20). […] Inhibition of PGE2 by γ-T, and γ-TE was also observed in the presence of exogenous AA, where after co-incubated with vitamin E forms and IL-1β, cells were incubated with fresh media containing 5 μM of AA for 5 min.

Data set [3] addresses T1, COX-2 (Homo sapiens, UniProt P35354).
T1 sequence (P35354 18-604): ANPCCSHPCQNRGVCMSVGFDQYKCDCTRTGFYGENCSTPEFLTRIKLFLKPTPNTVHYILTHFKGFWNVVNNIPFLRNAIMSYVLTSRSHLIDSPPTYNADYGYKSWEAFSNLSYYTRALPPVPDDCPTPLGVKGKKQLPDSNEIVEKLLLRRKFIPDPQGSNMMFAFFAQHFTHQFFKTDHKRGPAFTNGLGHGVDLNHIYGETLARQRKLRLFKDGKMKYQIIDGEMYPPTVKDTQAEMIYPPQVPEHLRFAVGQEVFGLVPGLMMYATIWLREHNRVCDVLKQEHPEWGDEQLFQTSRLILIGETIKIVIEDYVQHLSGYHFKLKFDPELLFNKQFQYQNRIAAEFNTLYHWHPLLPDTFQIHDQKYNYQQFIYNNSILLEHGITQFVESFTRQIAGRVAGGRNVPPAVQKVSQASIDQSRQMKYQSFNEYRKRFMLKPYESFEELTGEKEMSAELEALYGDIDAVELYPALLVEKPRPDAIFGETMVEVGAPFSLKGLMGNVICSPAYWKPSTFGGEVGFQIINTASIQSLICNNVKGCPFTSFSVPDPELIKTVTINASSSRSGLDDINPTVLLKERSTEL
Description: COX-2 inhibition with purified human enzyme (Table 3). In kind it is biochemical. Details: A549 cells were pre-treated with 0.5-1 ng/mL of IL-1β- for 6 hours to induce COX-2 expression; endogenous in cells. Conditions: mean±SEM. The source says: Free radical biology & medicine 95, 190-199. Results are mean±SEM based on four or more independent experiments.

A further data set addresses T2, 5-LOX (Homo sapiens, UniProt P09917).
T2 sequence (P09917 1-674): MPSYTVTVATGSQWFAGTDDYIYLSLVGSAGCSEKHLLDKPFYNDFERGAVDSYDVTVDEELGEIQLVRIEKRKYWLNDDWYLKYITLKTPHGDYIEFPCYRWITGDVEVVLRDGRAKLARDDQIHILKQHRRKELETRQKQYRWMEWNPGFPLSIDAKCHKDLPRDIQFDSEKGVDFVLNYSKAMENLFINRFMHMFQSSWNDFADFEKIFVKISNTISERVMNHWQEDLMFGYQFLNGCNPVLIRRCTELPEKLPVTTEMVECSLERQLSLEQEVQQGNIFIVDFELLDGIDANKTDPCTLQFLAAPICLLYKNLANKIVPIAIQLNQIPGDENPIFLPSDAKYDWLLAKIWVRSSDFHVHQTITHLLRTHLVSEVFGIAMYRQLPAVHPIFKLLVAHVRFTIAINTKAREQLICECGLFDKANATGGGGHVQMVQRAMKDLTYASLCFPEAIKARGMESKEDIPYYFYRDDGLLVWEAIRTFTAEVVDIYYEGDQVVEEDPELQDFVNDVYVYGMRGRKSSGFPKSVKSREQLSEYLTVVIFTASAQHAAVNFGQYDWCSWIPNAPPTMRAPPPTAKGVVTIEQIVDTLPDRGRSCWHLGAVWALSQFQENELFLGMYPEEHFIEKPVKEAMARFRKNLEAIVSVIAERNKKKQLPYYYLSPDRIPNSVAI
Description: 5-LOX inhibition with purified human enzyme (Table 3). In kind it is biochemical. Conditions: mean±SEM. The source says: Results are mean±SEM based on four or more independent experiments.

Data set [4] relates to A549 cells. Description: Cell viability of confluent A549 cells (MTT). It is filed as cell-based, human. Particulars: 100% confluent cells, 1% FBS.
The nature of data set [5]: LC-MS analysis of fecal samples of mice fed δTE-13′. In kind it is in vivo. Conditions: mice fed with δTE-13′. The source says:
FIG. 6. Detection of δTE-13′-1 in fecal samples.

For data set [6], the system named is A549 cells. As to the kind of experiment: Metabolites of vitamin E forms in A549 conditioned media (HPLC). Particulars: 20 μM. In kind it is in vitro ADME, human. As to the method:
FIG. 3A illustrates that unconjugated long-chain carboxychromanols but not sulfated derivatives inhibited COX-2 activity in intact cells. […] Sulfated metabolites were the sum of 9′S, 11′S and 13′S, and unconjugated metabolites are the sum of 9′, 11′ and 13′. Conditioned media were obtained by incubation of A549 cells with γ-TE at 20 μM for 24, 48 and 72 h. Metabolites were extracted and measured using HPLC assay. The conditioned media were then used for the activity assay as described in FIG. 2A and 2B. Unsulfated/sulfated is the ratio of the sum of 9′, 11′ and 13′ to that of 9′S, 11′S and 13′S. All the results are expressed as Mean±SD. […]
Quantitation of vitamin E metabolites in conditioned media—Long-chain carboxychromanols and their sulfated counterparts were quantitated by a HPLC assay with fluorescent detection (17). […]
Extracted metabolites were separated using HPLC and detected by a Shimadzu RF-10AXL spectrofluorometric detector (Shimadzu, Columbia, Md.) with the excitation and emission wavelength at 292 nm and 327 nm, respectively. […] Long-chain metabolites were quantified using tocopherols as the external standards with a correction factor based on the linear relationship between fluorescent intensity and solvent content (17).

For data set [7], the target named is T1, COX-2. As to the kind of experiment: COX-2 activity assay using purified enzyme. It is filed as biochemical. Also noted: purchased Cayman Chemicals (Ann Arbor, Mich.). Conditions: at 250 μM. Here is the method:
(§1) COX-1 and COX -2 activity assay using purified enzymes—The enzymatic reactions were performed in 0.1M Tris (pH 8.0), in the presence of 5 mM EDTA, 2 mM phenol, and 1 μM heme. […] Enzymatic reactions were initiated by addition of AA at a final concentration of 5 μM for 2 min. The reaction was stopped by addition of 0.1 M HCl. Stannous chloride in 0.1 M HCl was then added to reduce PGG2 and PGH2 to PGF2a. After addition of 0.5 vol of […] NaCl, prostaglandins formed in the reaction were extracted using 2.5 vol of ethyl acetate and the organic layer was completely dried under N2. PGF2a, and PGE2 were quantified using ELISA assays from Cayman Chemicals.

A further data set deals with T3, ovine COX-1 (Ovis aries, UniProt P05979).
T3 construct: purchased Cayman Chemicals (Ann Arbor, Mich.)
T3 sequence (P05979 25-600): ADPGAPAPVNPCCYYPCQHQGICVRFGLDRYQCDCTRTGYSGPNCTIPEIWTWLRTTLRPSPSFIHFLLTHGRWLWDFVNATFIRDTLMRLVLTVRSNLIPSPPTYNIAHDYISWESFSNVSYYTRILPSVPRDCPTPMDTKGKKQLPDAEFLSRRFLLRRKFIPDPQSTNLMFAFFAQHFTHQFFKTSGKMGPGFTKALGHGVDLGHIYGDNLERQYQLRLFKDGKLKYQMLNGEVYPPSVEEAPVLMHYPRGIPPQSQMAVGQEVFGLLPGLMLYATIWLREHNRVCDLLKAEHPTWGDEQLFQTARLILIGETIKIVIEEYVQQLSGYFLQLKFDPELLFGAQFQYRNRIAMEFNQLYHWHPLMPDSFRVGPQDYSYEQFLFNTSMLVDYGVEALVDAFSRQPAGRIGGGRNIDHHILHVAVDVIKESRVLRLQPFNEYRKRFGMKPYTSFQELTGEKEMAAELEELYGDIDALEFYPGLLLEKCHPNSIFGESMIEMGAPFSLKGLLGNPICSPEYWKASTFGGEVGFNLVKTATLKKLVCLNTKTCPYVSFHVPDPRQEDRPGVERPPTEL
As to the kind of experiment: COX-1 activity assay using purified enzyme. It is filed as biochemical. As to the method:
as §1

In turn, `c1cc2c(cc1[C@H]1OC[C@H]3[C@@H]1CO[C@@H]3c1ccc3c(c1)OCO3)OCO2` [sesamin, reference compound] returned a PGE2 in [1] of 12.46 ± 1.4 ng/mL. Further, the “effect on PGE2 generation” value in data set [2] (sesamin alone at 1 μM) was “did not affect”.

With `Cc1c(O)cc2c(c1C)OC(C)(CCCC(C)CCCC(C)CCCC(C)C)CC2` (centres unmarked) [γ-T], the IC50 at COX-2 [3] is over 50 µM; in data set [2] (Homo sapiens, A549, 5 min), 25 µM; on 5-LOX, over 50 µM. Also, in the data set on A549 cells [4] (25-50 μM), the “cell viability (MTT, cell morphology)” value is given as “did not show significant effects”.

For `Cc1cc(O)cc2c1OC(C)(CCCC(C)CCCC(C)CCCC(C)C)CC2` (centres unmarked) [δ-T], the IC50 at COX-2 [3] is over 50 µM; in data set [2] (Homo sapiens, A549, 5 min), 10 µM; against 5-LOX, over 50 µM. For the same molecule, the “cell viability (MTT, cell morphology)” value in the data set on A549 cells [4] (25-50 μM) is listed as “did not show significant effects”.

Regarding `C/C(=C\CCC1(C)CCc2cc(O)cc(C)c2O1)CC/C=C(\C)CCCC(C)C(=O)O` (centres unmarked) [δTE-13′-1], in data set [5], the “formation in fecal samples” value is recorded as “detected”.

For the molecule `CC(C)=CCC/C(C)=C/CC/C(C)=C/CC[C@]1(C)CCc2cc(O)c(C)c(C)c2O1` [γ-TE, γ-tocotrienol], the “share of metabolites that are sulfated carboxychromanols” value in the data set with A549 cells [6] (72-h incubation) was “more than 85%”. Besides, the “share of metabolites that are unconjugated carboxychromanols” value with A549 cells [6] (first 24-h incubation) was 90%. Further, the “effect of sesamin on the inhibitory potency on PGE2” value in data set [2] (in the presence of 1 μM sesamin) was “moderately diminished”. For the same molecule, the IC50 in data set [2] turned out to be 10 µM. In addition, the “cell viability (MTT, cell morphology)” value in the data set on A549 cells [4] (20 μM) is “did not show significant effects”.

For `CC(=O)Nc1ccc(O)cc1` [Acetaminophen, reference compound], the “inhibition of COX-2” value against COX-2 [7] is recorded as “did not significantly inhibit”. For the same molecule, the “inhibition of COX-1” value against ovine COX-1 (at 250 μM) is given as “did not significantly inhibit”. For the same molecule, the “IC50 COX-1” value against ovine COX-1 (purified enzyme, Not inhibit: 9′ at 20 μM, acetaminophen at 250 μM) was “Not inhibit*”.

For the molecule `CC(C)=CCC/C(C)=C/CC/C(C)=C/CC[C@]1(C)CCc2c(C)c(O)c(C)c(C)c2O1` [α-TE, α-Tocotrienol], the “inhibition of PGE2 formation” value in [2] (at 20 μM, A549 cells co-treated with IL-1β) stood at 20%.
